The text below walks through data of patent US4320127A, “Pyrido[3,2-e]-as-triazines” (Edyt Gyogyszervegyeszeti Gyar, priority 1979, dated 1982).

Structures can show the parent of a compound that is named as a salt. Where two headings read alike, the source gives them in different places.

The test system of data set [1] is carrageenin oedema of the hind paw. As to the kind of experiment: antiphlogistic (oedema-inhibiting) effect, carrageenin paw oedema. Type of data set: in vivo, rats. The following applies: for ED30: Rattus norvegicus; for Therapeutical index: carrageenin oedema. The method, then: The antiphlogistic (oedema-inhibiting) effect was tested on rats. 0.1 ml of a 1% carrageenin solution were injected into the plantar region of one of the hind paws. The volume of the paw was measured just before and 3 hours after the introduction of oedema-provoking agent by a mercury plethysmometer.

The next data set concerns reserpine. In words: reserpine antagonism (Brodie et al.). Type of data set: in vivo. The following applies: mice; for ED50: Mus musculus, oral administration; for Therapeutic index: reserpine antagonism, oral.
Another data set deals with tetrabenazine. As to the kind of experiment: tetrabenazine antagonism (Brodie et al.). Type of data set: in vivo. The following applies: mice; for ED50: Mus musculus, oral administration; for Therapeutic index: tetrabenazine antagonism, oral.
A further data set has as its system hexobarbital-narcosis. As to the kind of experiment: effect on the duration of hexobarbital-narcosis (Kaergaard). The following applies: for ED50: Mus musculus, po; for Therapeutical index: hexobarbital-narcosis, mice, oral.
The next data set is described as follows: in vivo. The following applies: mouse. The method, then: The toxicity of the new compounds according to the invention was determined on mice after oral administration.
The next data set deals with motility of mice. In words: effect on the motility of mice in a Dews apparatus (Borsy et al.). The following applies: for ED50: Mus musculus, po; for Therapeutical index: motility, mice, oral.
The subject of another data set is acetic acid writhing. In words: analgesic effect, acetic acid writhing test. Type of data set: in vivo. The following applies: mice, oral; for ED50: Mus musculus, analgesic. The method, then:
The analgesic effect of the new compounds was determined on mice at oral administration by the acetic acid writhing test.

Setting [2] is: dosage inhibiting the inflammation by 30%, rats, 0.1 ml of 1% carrageenin, 3 hours, read-out: ED30.

Excerpt for hexobarbital-narcosis: The effect of the compounds exerted on the duration of hexobarbital-narcosis was orally tested on mice by the method of Kaergaard (Arch. Int. Pharmacodyn. 2 170 (1967)).
Excerpt for motility of mice: The effect of the compounds on the motility of mice was orally tested in a Dews apparatus, by the method of Borsy et al. (Arch. Int. Pharmacodyn. 124 1-2 (1960). The ED50 values and the therapeutical indices are listed in Table 2.

Regarding `CC(=O)Oc1ccccc1C(=O)O` [Acetylsalicylic acid, reference compound], the ED30 in data set [1] (3 h) came out at 180 mg/kg.

As for `CN(C)CCC=C1c2ccccc2CCc2ccccc21` [Amitriptyline, reference compound], in the data set with reserpine, the ED50 came to 65 mg/kg and the Therapeutic index was 3.46. In the data set on tetrabenazine, the 50% effective dose (ED50) was determined as 12 mg/kg and the Therapeutic index is on record as 18.75.

As for `CCCCCCC1=Nc2cccnc2N(C(=O)CC)N1.Cl` [Example 1, 3-n-hexyl-1-propionyl-1,2-dihydropyrido[3,2-e]-as-triazine hydrochloride], the median effective dose (ED50) in the data set with reserpine was 300 mg/kg; with hexobarbital-narcosis, ~400 mg/kg; in the data set with tetrabenazine it was 300 mg/kg; in the data set with motility of mice, ~200 mg/kg. Besides, the Therapeutic index with reserpine and in the data set on tetrabenazine was 5 throughout. Moreover, the ED30 in data set [1] (setting [2]) turned out to be 200 mg/kg. Moreover, the Therapeutical index is 7.5 in data set [1] (rats), “about 5” with hexobarbital-narcosis and 7.5 in the data set on motility of mice. In the data set “in vivo” (mice, oral administration), this molecule yielded an LD50 of 1500 mg/kg.

For the molecule `CCC(=O)N1NC(c2ccc(OC)cc2)=Nc2cccnc21` [Example 5, 3-anisyl-1-propionyl-1,2-dihydropyrido[3,2-e]-as-triazine hydrochloride], the median effective dose (ED50) is 170 mg/kg in the data set with reserpine; ~170 mg/kg with hexobarbital-narcosis; 80 mg/kg with tetrabenazine; 52 mg/kg in the data set with acetic acid writhing; ~170 mg/kg with motility of mice. The Therapeutic index came out at 4.4 with reserpine and 9.4 in the data set with tetrabenazine. In addition, in data set [1] (setting [2]), the ED30 was found to be 75 mg/kg. In addition, the Therapeutical index in data set [1] (rats) turned out to be 10; in the data set on hexobarbital-narcosis, 4.4; with acetic acid writhing it was 14.4; with motility of mice, 4.4. In “in vivo” (mice, oral administration), this molecule returned an LD50 of 750 mg/kg.

As to `CCC(=O)N1NC(c2cc(OC)c(OC)c(OC)c2)=Nc2cccnc21.Cl` [Example 6, 3-(3',4',5'-trimethoxyphenyl)-1-propionyl-1,2-dihydropyrido[3,2-e]-as-triazine hydrochloride], in data set [1] (setting [2]), the ED30 was ~155 mg/kg. In addition, the Therapeutical index in data set [1] (rats) is 12.9; with hexobarbital-narcosis it was 5.7; in the data set with acetic acid writhing it was 9.3; in the data set on motility of mice it was “about 5”. The median effective dose (ED50) was ~350 mg/kg in the data set with hexobarbital-narcosis, 215 mg/kg in the data set on acetic acid writhing and ~400 mg/kg in the data set with motility of mice. In the data set “in vivo” (mice, oral administration), this molecule displayed a median lethal dose (LD50) of 2000 mg/kg.

For `CCC(=O)N1NC(CCc2ccccc2)=Nc2cccnc21` [Example 7, 3-phenetyl-1-propionyl-1,2-dihydropyrido-[3,2-e]-as-triazine], the ED50 with hexobarbital-narcosis, in the data set on acetic acid writhing and with motility of mice was > 400 mg/kg in each case. In addition, the Therapeutical index entry with hexobarbital-narcosis was “below 5”; with acetic acid writhing it was “below 5”; with motility of mice, “under 5”. Besides, the LD50 in “in vivo” (mice, oral administration) turned out to be 2000 mg/kg.

For the molecule `CCCCCCC1=Nc2cccnc2N(C(=O)c2cccnc2)N1` [Example 11, 3-n-hexyl-1-nicotinoyl-1,2-dihydropyrido-[3,2-e]-as-triazinedihydrochloride], the 50% effective dose (ED50) in the data set on hexobarbital-narcosis is 140 mg/kg; with acetic acid writhing, ~400 mg/kg; in the data set with motility of mice, ~200 mg/kg. The results for the Therapeutical index in the data set on hexobarbital-narcosis, in the data set on acetic acid writhing and in the data set with motility of mice were 14.3, 5 and “about 10”, respectively. Besides, the LD50 in “in vivo” (po) is 2000 mg/kg.

As to `CCCCC1C(=O)N2C(c3ccccc3)=Nc3cccnc3N2C1=O` (stereo not shown) [Example 13, 2-butyl-4-phenylpyrazolo[1,2-a]pyrido[3,2-e]-as-triazine-1,3-dione], the ED30 in data set [1] (setting [2]) is > 400 mg/kg. The Therapeutical index entry in data set [1] (rats) was “below 5”. The molecule also had an LD50 in the data set “in vivo” (po) of 2000 mg/kg. Further, in the data set on acetic acid writhing, the median effective dose (ED50) is > 400 mg/kg and the Therapeutical index result is reported as “below 5”.

As to `CCCCCCC1=Nc2cccnc2N(C(=O)c2ccccc2)N1.Cl` [Example 18, 3-hexyl-1-benzoyl-1,2-dihydropyrido[3,2-e]-as-triazine hydrochloride], the median effective dose (ED50) with reserpine was 30 mg/kg; in the data set with hexobarbital-narcosis, 80 mg/kg; in the data set on tetrabenazine, 10 mg/kg; in the data set with acetic acid writhing, ~38 mg/kg. The Therapeutic index is reported as 12.7 with reserpine and 38 in the data set with tetrabenazine. Also, in data set [1] (setting [2]), the ED30 was ~70 mg/kg. In addition, the Therapeutical index in data set [1] (rats) was 5.4; in the data set with hexobarbital-narcosis, 5; in the data set with acetic acid writhing, 10. For the same molecule, in the data set “in vivo” (mice, oral administration), the LD50 was 380 mg/kg.

Regarding `CCCC(C)(COC(N)=O)COC(N)=O` [Meprobamate, reference compound], the ED50 with hexobarbital-narcosis was 260 mg/kg; with motility of mice, 270 mg/kg. Further, the Therapeutical index with hexobarbital-narcosis worked out at 4.2; with motility of mice, 4.1.

`CC(=O)Nc1ccc(O)cc1` [Paracetamol, reference compound] registered a 50% effective dose (ED50) in the data set on acetic acid writhing of 180 mg/kg.
